Test results: ChEMBL document CHEMBL5055656, “Synthesis of novel indole-thiazolidinone hybrid structures as promising scaffold with anticancer potential” (Bioorg Med Chem, 2021)
The source made the active and inactive calls. No cut-off for these calls is given here.

Experiments:
[1] = Cytotoxicity against mouse BALB/3T3 cells assessed as cell growth inhibition measured after 72 hrs by MTT assay; assay type: cell-based
[2] = Selectivity index, ratio of GI50 for human HaCaT cells to GI50 for human A549 cells; assay type: toxicity; settings: HaCaT cells versus A549 cells, read-out: RatioGI50
[3] = target: Mitogen-activated protein kinase; ERK1/ERK2 (Homo sapiens) (UniProt P27361+P28482); experiment: Inhibition of ERK1/2 phosphorylation in human HepG2 cells at 45 uM after 24 hrs by Western blotting analysis; assay type: cell-based
Chain of Mitogen-activated protein kinase; ERK1/ERK2 (Homo sapiens) (P27361 whole entry, looked up): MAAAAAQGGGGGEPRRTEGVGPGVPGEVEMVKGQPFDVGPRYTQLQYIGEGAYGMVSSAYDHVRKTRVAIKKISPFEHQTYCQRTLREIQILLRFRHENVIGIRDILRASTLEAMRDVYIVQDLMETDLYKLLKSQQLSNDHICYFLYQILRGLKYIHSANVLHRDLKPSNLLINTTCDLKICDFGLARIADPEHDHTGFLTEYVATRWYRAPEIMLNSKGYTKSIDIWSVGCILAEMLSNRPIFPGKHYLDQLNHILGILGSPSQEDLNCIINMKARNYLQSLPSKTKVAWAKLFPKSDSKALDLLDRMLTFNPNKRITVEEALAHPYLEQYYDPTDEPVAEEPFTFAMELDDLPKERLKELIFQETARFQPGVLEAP
Chain of Mitogen-activated protein kinase; ERK1/ERK2 (Homo sapiens) (P28482 whole entry, looked up): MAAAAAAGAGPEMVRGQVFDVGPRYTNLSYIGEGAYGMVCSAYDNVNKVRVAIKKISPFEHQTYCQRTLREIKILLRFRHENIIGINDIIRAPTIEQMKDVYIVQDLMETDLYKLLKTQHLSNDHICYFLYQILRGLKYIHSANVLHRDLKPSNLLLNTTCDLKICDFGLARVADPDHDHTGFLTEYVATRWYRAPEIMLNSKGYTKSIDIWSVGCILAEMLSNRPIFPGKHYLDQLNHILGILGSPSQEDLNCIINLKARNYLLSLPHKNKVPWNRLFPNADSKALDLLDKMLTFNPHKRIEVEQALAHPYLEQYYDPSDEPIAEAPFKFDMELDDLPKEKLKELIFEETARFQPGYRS

[4] = Selectivity index, ratio of GI50 for mouse BALA/3T3 cells to GI50 for human THP-1 cells
[5] = Cytotoxicity against mouse BALB/3T3 cells assessed as cell growth inhibition measured after 24 hrs by neutral red uptake assay; assay type: cell-based; settings: BALB/3T3 cells
HepG2 [6] = experiment: Cytotoxicity against human HepG2 cells assessed as cell growth inhibition measured after 48 hrs by MTT assay; assay type: functional
[7] = Selectivity index, ratio of GI50 for mouse BALA/3T3 cells to GI50 for human HepG2 cells measured after 72 hrs by LDH assay; assay type: toxicity; settings: BALA/3T3 cells versus HepG2 cells, read-out: Selectivity Index
HepG2 [8] = experiment: Cytotoxicity against human HepG2 cells assessed as cell growth inhibition measured after 24 hrs by LDH assay; assay type: functional
HCT-116 [9] = experiment: Induction of apoptosis in human HCT-116 cells assessed as decrease in Cdk2 expression at 45 uM after 24 hrs by Western blot analysis; assay type: functional, cell-based
HCT-116 [10] = experiment: Induction of apoptosis in human HCT-116 cells assessed as activation of cleaved PARP1 expression at 0.7 uM incubated for 24 hrs by Western blot analysis; assay type: functional, cell-based
[11] = Cytotoxicity against human HaCaT cells assessed as cell growth inhibition measured after 72 hrs by MTT assay; assay type: cell-based
HepG2 [12] = experiment: Induction of DNA damage in human HepG2 cells assessed as increase in tail length incubated at 0.7 uM measured after 24 hrs by alkaline Comet assay; assay type: functional
[13] = Selectivity index, ratio of GI50 for mouse BALA/3T3 cells to GI50 for human HCT-116 cells; assay type: toxicity; settings: BALA/3T3 cells versus HCT-116 cells, read-out: RatioGI50
[14] = Selectivity index, ratio of GI50 for human HaCaT cells to GI50 for human WM793 cells
[15] = Selectivity index, ratio of GI50 for mouse BALA/3T3 cells to GI50 for human HepG2 cells; assay type: toxicity; settings: BALA/3T3 cells versus HepG2 cells, read-out: RatioGI50
HepG2 [16] = experiment: Cytotoxicity against human HepG2 cells assessed as cell growth inhibition measured after 72 hrs by MTT assay; assay type: functional
BALB/3T3 [17] = experiment: (§1) Cytotoxicity against mouse BALB/3T3 cells assessed as cell growth inhibition measured after 24 hrs by LDH assay; assay type: cell-based; settings: balb/3t3, 24 h
[18] = as §1; assay type: cell-based; settings: BALB/3T3 cells
HepG2 [19] = experiment: Cytotoxicity against human HepG2 cells assessed as cell growth inhibition measured after 48 hrs by coomassie brilliant blue staining based total cellular protein assay; assay type: functional
BALB/3T3 [20] = experiment: (§2) Cytotoxicity against mouse BALB/3T3 cells assessed as cell growth inhibition measured after 24 hrs by coomassie brilliant blue staining based total cellular protein assay; settings: balb/3t3, 24 h
[21] = as §2; settings: BALB/3T3 cells
A549 = experiment: Cytotoxicity against human A549 cells assessed as cell growth inhibition measured after 72 hrs by MTT assay; assay type: functional
HCT-116 [22] = experiment: Cytotoxicity against human HCT-116 cells assessed as cell growth inhibition measured after 72 hrs by MTT assay; assay type: functional
[23] = Selectivity index, ratio of GI50 for human HaCaT cells to GI50 for human THP-1 cells
[24] = Selectivity index, ratio of GI50 for mouse BALA/3T3 cells to GI50 for human HepG2 cells measured after 48 hrs by LDH assay; assay type: toxicity; settings: BALA/3T3 cells versus HepG2 cells, read-out: Selectivity Index
HepG2 [25] = experiment: Cytotoxicity against human HepG2 cells assessed as cell growth inhibition measured after 48 hrs by neutral red uptake assay; assay type: functional
[26] = Selectivity index, ratio of GI50 for mouse BALA/3T3 cells to GI50 for human WM793 cells
HCT-116 [27] = experiment: Induction of cell cycle arrest in human HCT-116 cells assessed as decrease in phospho-Rb expression at 45 uM measured after 24 hrs by Western blot analysis; assay type: functional, cell-based
HCT-116 [28] = experiment: Induction of DNA damage in human HCT-116 cells assessed as increase in tail length at 0.7 uM incubated measured after 24 hrs by alkaline Comet assay; assay type: functional, cell-based
HepG2 [29] = experiment: Induction of cell cycle arrest in human HepG2 cells assessed as effect of phospho-Rb expression at 45 uM measured after 24 hrs by Western blot analysis; assay type: functional, cell-based
[30] = Selectivity index, ratio of GI50 for human HaCaT mouse BALA/3T3 cells to GI50 for human A549 cells; assay type: toxicity; settings: read-out: RatioGI50
BALB/3T3 [31] = experiment: Induction of DNA damage in mouse BALB/3T3 cells assessed as increase in tail length incubated at 55 uM measured after 24 hrs by alkaline Comet assay; assay type: cell-based; settings: balb/3t3, 24 h
BALB/3T3 [32] = experiment: (§3) Cytotoxicity against mouse BALB/3T3 cells assessed as cell growth inhibition measured after 72 hrs by neutral red uptake assay; assay type: cell-based; settings: balb/3t3, 72 h
[33] = as §3; assay type: cell-based; settings: BALB/3T3 cells
HepG2 [34] = experiment: Induction of DNA damage in human HepG2 cells assessed as increase in olive tail moment incubated at 0.7 uM measured after 24 hrs by alkaline Comet assay; assay type: functional
BALB/3T3 [35] = experiment: (§4) Cytotoxicity against mouse BALB/3T3 cells assessed as cell growth inhibition measured after 24 hrs by MTT assay; assay type: cell-based; settings: balb/3t3, 24 h
[36] = as §4; assay type: cell-based; settings: BALB/3T3 cells
[37] = Selectivity index, ratio of GI50 for human HaCaT cells to GI50 for human HCT-116 cells; assay type: toxicity; settings: HaCaT cells versus HCT-116 cells, read-out: RatioGI50
HepG2 [38] = experiment: Cytotoxicity against human HepG2 cells assessed as cell growth inhibition measured after 72 hrs by LDH assay; assay type: functional
Salmon testes DNA = experiment: Displacement of methyl green from salmon sperm DNA at 1 uM measured after 2 hrs by fluorescence plate reader method relative to control; assay type: cell-based; settings: Salmo salar, Spermatozoa
HepG2 [39] = experiment: Cytotoxicity against human HepG2 cells assessed as cell growth inhibition measured after 24 hrs by coomassie brilliant blue staining based total cellular protein assay; assay type: functional
[40] = Selectivity index, ratio of GI50 for human HaCaT cells to GI50 for human MCF7 cells; assay type: toxicity; settings: HaCaT cells versus MCF7 cells, read-out: RatioGI50
MCF7 = experiment: Induction of apoptosis in human MCF7 cells assessed as activation of cleaved PARP1 expression at 0.7 uM incubated for 24 hrs by Western blot analysis; assay type: functional, cell-based

## COC(=O)c1[nH]c2ccc(F)cc2c1/C=C1\SC(=S)NC1=O
[1]
  GI50 at 72 h: 40.8 µM
[2]
  selectivity ratio: 7.17
[3]
  inhibition: inactive
[4]
  RatioGI50: 1.11
[5]
  GI50 at 24 h: > 100 µM
HepG2 [6]
  GI20: 0.3 µM
  GI80: 79.4 µM
HepG2 [6]; Homo sapiens, HepG2
  GI50: 16.3 µM
[7]
  selectivity ratio at 72 h: 1570
HepG2 [8]
  GI20: <0.01 µM
  GI80: 20.3 µM
HepG2 [8]; Homo sapiens, HepG2
  GI50: 0.31 µM
HCT-116 [9]
  Activity: Active
HCT-116 [10]
  Activity: Active
[11]
  GI50 at 72 h: 98.3 µM
HepG2 [12]
  Activity: 26.2%
[13]
  selectivity ratio: 86.9
[14]
  RatioGI50: 0.87
[15]
  selectivity ratio: 5.75
HepG2 [16]
  GI50: 12.1 µM
BALB/3T3 [17]
  GI20: > 100 µM
  GI80: > 100 µM
[18]
  GI50 at 24 h: > 100 µM
HepG2 [19]
  GI20: 1.6 µM
  GI80: >100 µM
HepG2 [19]; Homo sapiens, HepG2
  GI50: 63.9 µM
BALB/3T3 [20]
  GI20: 6.1 µM
  GI80: > 100 µM
[21]
  GI50 at 24 h: > 100 µM
A549
  GI50: 9.7 µM
HCT-116 [22]
  GI50: 0.8 µM
[23]
  RatioGI50: 1.11
[24]
  selectivity ratio at 48 h: 1500
HepG2 [25]
  GI20: 0.06 µM
  GI80: 73.5 µM
HepG2 [25]; Homo sapiens, HepG2
  GI50: 24.5 µM
[26]
  RatioGI50: 0.87
HCT-116 [27]
  Activity: Active
HCT-116 [28]
  Activity: Active
HepG2 [29]
  Activity: inactive
[30]
  selectivity ratio: 7.17
BALB/3T3 [31]
  Activity: 8.4%
BALB/3T3 [32]
  GI20: 0.7 µM
  GI80: > 100 µM
[33]
  GI50 at 72 h: 51.5 µM
HepG2 [34]
  Activity: 13.2
BALB/3T3 [35]
  GI20: 7.9 µM
  GI80: > 100 µM
[36]
  GI50 at 24 h: 54.3 µM
[37]
  selectivity ratio: 86.9
HepG2 [38]
  GI20: <0.01 µM
  GI80: 3.6 µM
HepG2 [38]; Homo sapiens, HepG2
  GI50: 0.04 µM
Salmon testes DNA
  Activity: 1.7%
HepG2 [39]
  GI20: 3.7 µM
  GI80: >100 µM
HepG2 [39]; Homo sapiens, HepG2
  GI50: > 100 µM
[40]
  selectivity ratio: 99.4
MCF7
  Activity: Active
